As usually defined, the GI50 is the concentration giving 50% growth inhibition.

Molecules are shown by their SMILES.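 Five compound concentrations were applied to cells in 96-well plates for 48 hours; endpoints were derived by simple linear interpolation of the resulting dose-response curve. Abbreviation: GI50, concentration required for 50% inhibition of growth.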 Activity calls are given as the source filed them. No stated cut-off is given here; in the data, active = GI50 up to about 1.1 µM and inactive = higher.

Holding throughout (experiment): DTP human tumour cell line panel, 48 h
Assay [1] relates to SF-268.
Assay [2] relates to HT-29.
Assay [3] concerns EKVX.
The subject of assay [4] is NCI-H226.
For assay [5], the system named is LOX IMVI.
Assay [6] deals with MDA-MB-231.
The subject of assay [7] is HOP-62.
In assay [8] the test system is HCC 2998.
In assay [9] the test system is SNB-75.
The test system of assay [10] is OVCAR-8.
Assay [11] concerns T47D.
Assay [12] has as its system KM12.
Assay [13] concerns UACC-62.
Assay [14] concerns HOP-92.
The subject of assay [15] is PC-3.
Assay [16] has as its system NCI/ADR-RES.
The test system of assay [17] is SW-620.
In assay [18] the test system is SF-539.
Assay [19] deals with SK-MEL-28.

As for `CCc1nc(N)nc(N)c1-c1ccc(N2CCNCC2)c([N+](=O)[O-])c1`, the GI50 in [1] is 9.29 µM (inactive); in assay [2], 4.47 µM (inactive); in assay [3], 23.8 µM (inactive); in assay [4], 65.9 µM (inactive); in assay [5], 3.48 µM (inactive); in [6], 26.5 µM (inactive). Moreover, the GI50 is 19.4 µM (inactive) in assay [7]; 11.5 µM (inactive) in assay [8]; 36.6 µM (inactive) in [9]; 6.7 µM (inactive) in assay [10]; 58.5 µM (inactive) in assay [11]; 12 µM (inactive) in [12]. In addition, the GI50 is 6.08 µM (inactive) in [13]; 27.4 µM (inactive) in assay [14]; 5.28 µM (inactive) in assay [15]; > 100 µM (inactive) in assay [16]; 5.4 µM (inactive) in assay [17]; 10.6 µM (inactive) in assay [18]. For the same compound, the GI50 in assay [19] is 40.5 µM (inactive).

On to `C#CC1NC(=O)C1N(CC)CC` (configuration not stated), for which the GI50 in assay [1], in assay [2], in [3], in assay [4], in assay [5] and in assay [6] was > 100 µM (inactive) each time. In addition, the GI50 was > 100 µM (inactive) in assay [7]; > 100 µM (inactive) in [8]; 14.6 µM (inactive) in assay [9]; > 100 µM (inactive) in [10]; > 100 µM (inactive) in assay [11]; > 100 µM (inactive) in [12]. Besides, the GI50 in [13], in assay [14], in assay [15], in [16], in [17] and in assay [18] was > 100 µM (inactive) in each case. In addition, the GI50 in assay [19] is > 100 µM (inactive).

Regarding `Cc1ccc(S(=O)(=O)N/N=C2/CC[C@H](C(C)(C)C)C[C@@H]2C)cc1`, the GI50 in [1] was > 10 µM (inactive); in [2] it was 17.1 µM (inactive); in assay [3], 18 µM (inactive); in [4], 13.8 µM (inactive); in [5] it was 14.7 µM (inactive); in [6], 21.2 µM (inactive). Besides, the GI50 is 13.8 µM (inactive) in assay [7]; 18.9 µM (inactive) in [8]; 17.8 µM (inactive) in assay [9]; 16 µM (inactive) in [10]; 10.6 µM (inactive) in [11]; 22.6 µM (inactive) in assay [12]. Besides, the GI50 in assay [13] is 15.7 µM (inactive); in assay [14], 16.7 µM (inactive); in assay [15] it was 18.3 µM (inactive); in [16] it was 15 µM (inactive); in [17], 22.5 µM (inactive); in [18], 18.2 µM (inactive). Moreover, the GI50 in [19] is 17 µM (inactive).

As for `C[C@]12CC[C@H](O)CC1=CC[C@@H]1[C@@H]2CC[C@]2(C)c3nc(Cl)ccc3C[C@@H]12`, the GI50 in [1] is 26.7 µM (inactive); in assay [2], 10.9 µM (inactive); in assay [3], 11.4 µM (inactive); in [4], > 100 µM (inactive); in assay [5], 57.1 µM (inactive); in [6], > 94.6 µM (inactive). For the same compound, the GI50 in assay [7] is 30.7 µM (inactive); in [8] it was > 58.1 µM (inactive); in assay [9], 25 µM (inactive); in assay [10] it was 62.5 µM (inactive); in assay [11] it was > 63.4 µM (inactive); in [12], 22.2 µM (inactive). Moreover, the GI50 in [13] is 11.5 µM (inactive); in assay [14], > 100 µM (inactive); in assay [15] it was 74.3 µM (inactive); in assay [16] it was 29.5 µM (inactive); in assay [17], > 42.3 µM (inactive); in [18] it was 14.9 µM (inactive). Also, the GI50 in [19] was > 64.1 µM (inactive).

For the compound `CN(C)CCNC(=O)c1ccc(NCCCN(C)CCCNc2ccc(C(=O)NCCN(C)C)c3nc4ccc([N+](=O)[O-])cc4c(O)c23)c2c(O)c3cc([N+](=O)[O-])ccc3nc12`, the GI50 in [1] was 0.065 µM (active); in assay [2], < 0.0182 µM (active); in [3], 0.301 µM (active); in assay [4], < 0.01 µM (active); in [5] it was < 0.01 µM (active); in [6], 0.05 µM (active). Further, the GI50 in assay [7] was 0.154 µM (active); in assay [8], 0.0347 µM (active); in [9], 0.14 µM (active); in [10], < 0.01 µM (active); in assay [11] it was 0.32 µM (active); in assay [12] it was 0.04 µM (active). Besides, the GI50 is 0.0538 µM (active) in assay [13]; 0.0431 µM (active) in [14]; < 0.01 µM (active) in assay [15]; 1.23 µM (inactive) in assay [16]; < 0.01 µM (active) in [17]; 0.0186 µM (active) in assay [18]. Moreover, the GI50 in [19] was 0.157 µM (active).

`Cc1c(OCc2cccc3ccccc23)ccc2c(O)cc(=S)oc12`: the GI50 in assay [1] is 34.1 µM (inactive); in assay [2] it was 38.2 µM (inactive); in assay [3] it was 44.1 µM (inactive); in [4], 39.5 µM (inactive); in assay [5], 22 µM (inactive); in assay [6], 46.5 µM (inactive). The GI50 was 37.3 µM (inactive) in [7]; 31.4 µM (inactive) in assay [8]; 40.9 µM (inactive) in assay [9]; 60.4 µM (inactive) in assay [10]; 35.2 µM (inactive) in assay [11]; 29.2 µM (inactive) in assay [12]. Besides, the GI50 in [13] was 23.1 µM (inactive); in assay [14] it was 27.1 µM (inactive); in assay [15] it was 35.2 µM (inactive); in [16], 38.2 µM (inactive); in assay [17] it was 39.2 µM (inactive); in assay [18] it was 26.9 µM (inactive). In addition, the GI50 in assay [19] was 43.6 µM (inactive).

On to `Cc1cc(NS(=O)(=O)c2ccc(NC(=O)c3ccc4[nH]c5ccccc5c(=O)c4c3)cc2)no1`, for which the GI50 in assay [1] is > 100 µM (inactive); in [2] it was > 100 µM (inactive); in assay [3] it was > 100 µM (inactive); in [4] it was > 100 µM (inactive); in [5], 46.5 µM (inactive); in [6], > 100 µM (inactive). Moreover, the GI50 was > 100 µM (inactive) in assay [7]; 85.3 µM (inactive) in assay [8]; > 100 µM (inactive) in assay [9]; > 100 µM (inactive) in assay [10]; 69.7 µM (inactive) in [11]; 44.1 µM (inactive) in assay [12]. The GI50 in [13] is > 100 µM (inactive); in assay [14], 88.3 µM (inactive); in assay [15] it was > 100 µM (inactive); in assay [16], > 100 µM (inactive); in [17] it was > 100 µM (inactive); in [18] it was 68.1 µM (inactive). Moreover, the GI50 in assay [19] was > 100 µM (inactive).

Regarding `O=C(O)c1cc2ccccc2c2c1C(=O)c1ccccc1-2`, the GI50 in [1] is > 100 µM (inactive); in [2], > 100 µM (inactive); in [4], > 100 µM (inactive); in assay [5], > 100 µM (inactive); in assay [6] it was > 100 µM (inactive); in assay [7], 20.7 µM (inactive). Also, the GI50 was > 100 µM (inactive) in assay [8]; > 100 µM (inactive) in [9]; > 100 µM (inactive) in [10]; > 100 µM (inactive) in assay [11]; > 100 µM (inactive) in assay [12]; 45.9 µM (inactive) in [13]. Also, the GI50 in assay [14] was 50.2 µM (inactive); in assay [15] it was > 100 µM (inactive); in assay [16], > 100 µM (inactive); in [17] it was > 100 µM (inactive); in [18], > 100 µM (inactive); in assay [19] it was 58.3 µM (inactive).

On to `CC1(C)OCC2OC3([C@H]4OC(C)(C)O[C@@H]4CO)OC(C)(C)OC3C2O1` (some centres not stated), for which the GI50 in [2], in assay [3], in assay [4], in assay [5], in assay [6] and in [7] was > 100 µM (inactive) in each case. Further, the GI50 in assay [8], in assay [9], in assay [10], in assay [11], in [12] and in [13] was > 100 µM (inactive) throughout. Also, the GI50 in [14], in [15], in [16], in assay [17], in [18] and in assay [19] was > 100 µM (inactive) in each case.

`CN1CCN(C2=CC(=O)c3c(O)ccc(O)c3C2=O)CC1`: the GI50 in assay [1] was 1.57 µM (inactive); in [2], 0.302 µM (active); in assay [3], 1.86 µM (inactive); in [4], 1.59 µM (inactive); in assay [5] it was 0.547 µM (active); in assay [6], 1.46 µM (inactive). For the same compound, the GI50 in assay [7] is 1 µM (active); in [8], 1.82 µM (inactive); in assay [9] it was 1.61 µM (inactive); in assay [11], 0.69 µM (active); in [12] it was 2.07 µM (inactive); in [13] it was 1.65 µM (inactive). Moreover, the GI50 in assay [14] is 1.86 µM (inactive); in assay [15], 0.412 µM (active); in [16], 1.04 µM (active); in [17], 0.618 µM (active); in assay [18], 1.61 µM (inactive); in [19], 1.64 µM (inactive).

The values above are taken from ChEMBL document CHEMBL1201862, “PubChem BioAssay data set” (2004).
